According to patent publication US20050148614A1 (priority 1997, published 2005):

Legend:
[1] = system: amnesia induced by the injection of vincristine; experiment: Evaluation test of the social memory in the rat after lesions caused by injection of vincristine; format: in vivo; conditions: vincristine-lesioned rats
Method: In this model, the effects are evaluated of the products tested on amnesia induced by the injection of vincristine which induces biochemical alterations similar to the changes present in Alzheimer's disease.
The procedures used in this model, lesions caused by vincristine as well as the evaluation of the social memory are described in EP 655247.
Evaluation Test of the Social Memory in the Rat.
The dose of 1 mg/kg i.p. of tacrine is then administered to the two groups of rats.

[2] = system: amnesia induced by the injection of vincristine; conditions: vincristine-lesioned rats; as described in EP 655247; cited from earlier work

Nc1c2c(nc3ccccc13)CCCC2 [tacrine, reference compound]
recovery of memory ([1]; solvent then tacrine 1 mg/kg i.p. (control group)): no recovery of memory

Cl.FC(F)(F)c1cccc(C2=CCN(CCc3ccc4ccccc4c3)CC2)c1 [SR 57746A, 1-(2-naphth-2-ylethyl)-4-(3-trifluoromethylphenyl)-1,2,3,6-tetrahydropyridine hydrochloride]
functional recovery in terms of memory ([1]; SR 57746A alone at 5 mg/kg p.o.): insufficient to permit functional recovery in terms of memory
efficacious dose (functional recovery of memory) [2]: 10 mg/kg
